Source: PMC3189208 (PLoS ONE, 2011)
Where two headings read alike, the source gives them in different places.

Legend:
[1] = target: MOR; settings: cited from earlier work
[2] = system: MOR kinase pathways in HEK-MOR cells; format: cell-based, human
[3] = system: MOR G-protein signaling in HEK-MOR cells; format: cell-based, human
[4] = system: parental HEK293 cells; format: cell-based, human

In the case of `C=CCN1CCC2(C)c3cc(O)ccc3CC1C2C` (stereo not drawn) [SKF10047], the Ki [1] is given as 1900 nM.

In the case of `Oc1ccc2c3c1O[C@H]1c4c(c5ccccc5n4Cc4ccccc4)C[C@@]4(O)[C@@H](C2)N(CC2CC2)CC[C@]314` [N-benzylnaltrindole], the IC50 [1] is given as 11.2 nM.

For `C[C@@H](NC(=O)[C@@H](N)Cc1ccc(O)cc1)C(=O)NCC(=O)N(C)[C@@H](Cc1ccccc1)C(=O)NCCO` [DAMGO], the “maximal DMR response after SB202190 pretreatment vs untreated” value [2] was “not completely blunted” and the “ligand-induced DMR in pertussis toxin (PTx)-pretreated cells” value [3] was “small P-DMR”.

In the case of `C=CCN1CC[C@]23CCCC[C@H]2[C@H]1Cc1ccc(O)cc13` [levallorphan], the Ki [1] is given as 1.7 nM.

In the case of deltorphin II, the Kd [1] is listed as 3.3 nM.

For `Oc1ccc2c3c1O[C@H]1c4oc5ccccc5c4C[C@@]4(O)[C@@H](C2)N(CC2CC2)CC[C@]314` [Naltriben], the Ki [1] is given as 80.8 nM.

In the case of dynorphin B, the Ki [1] is listed as 13 nM.

In the case of `NC(=O)[C@H](Cc1ccccc1)NC(=O)[C@H](Cc1ccccc1)NC(=O)[C@@H]1CCCN1C(=O)[C@@H](N)Cc1ccc(O)cc1` [endomorphin-2], the “ligand-induced DMR in cholera toxin (CTx)-pretreated cells vs untreated” value [3] is given as “reduce” and the Ki [1] is given as 0.43 nM.

In the case of (D-Ala^2, D-Leu^5) enkephalin, the Kd [1] is listed as 150 nM.

For DSLET, the “maximal DMR response after SB202190 pretreatment vs untreated” value [2] is listed as “significantly reduced” and the Kd [1] is listed as 120 nM.

In the case of `COc1cccc(C2(O)CCCCC2CN(C)C)c1` (stereo not drawn) [tramadol], the “maximal DMR response after SB202190 pretreatment vs untreated” value [2] is reported as “significantly reduced” and the “maximal DMR response after U0126 pretreatment vs untreated” value [2] is reported as “sensitive”.

For `O=C1/C(=C/c2ccccc2)C[C@@]2(O)[C@H]3Cc4ccc(O)c5c4[C@@]2(CCN3CC2CC2)[C@H]1O5` [BNTX], the “DMR produced by ligand in parental HEK293 cells” value [4] is listed as “negative DMR” and the Ki [1] is listed as 18 nM.

For dynorphin A 1-8, the Ki [1] is given as 22.3 nM.

For dynorphin A 1-13, the “maximal DMR response after SB202190 pretreatment vs untreated” value [2] is listed as “significantly reduced”, the “maximal DMR response after SP100625 pretreatment vs untreated” value [2] is listed as “enhanced” and the Kd [1] is listed as 31 nM.

For morphiceptin, the IC50 [1] is given as 19.8 nM.

For `COC(=O)/C=C/C(=O)N[C@@H]1CC[C@@]2(O)[C@H]3Cc4ccc(O)c5c4[C@@]2(CCN3CC2CC2)[C@H]1O5` [β-funaltrexamine], the “late DMR response after SP100625 pretreatment vs untreated” value [2] is listed as “potentiated”, the “maximal DMR response after SP100625 pretreatment vs untreated” value [2] is listed as “enhanced” and the Ki [1] is listed as 0.33 nM.

For `COc1ccc2c3c1O[C@H]1[C@@H](O)C=C[C@H]4[C@@H](C2)NCC[C@@]341` [(-)-norcodeine], the Ki [1] is listed as 267 nM.

In the case of (met^5)-enkephalin, the Ki [1] is given as 3 nM.

In the case of `C=CC[N+]1(C)CC[C@]23c4c5ccc(O)c4O[C@H]2C(=O)CC[C@@]3(O)[C@H]1C5` (stereo partly drawn) [naloxone methionone], the Ki [1] is listed as 28.9 nM.

With `CN(C(=O)Cc1ccc(Cl)c(Cl)c1)[C@H](CN1CCCC1)c1ccccc1` [ICI 199,441] the “DMR produced by ligand in parental HEK293 cells” value ([4]; ligand 10 µM) was “small N-DMR”.

In the case of DPDPE, the Kd [1] is given as 600 nM.

For nociceptin 1-13: ORL1 agonist, the Ki [1] is given as 270 nM.

In the case of `O=C(Cc1ccc(Cl)c(Cl)c1)N1CCCCC1CN1CCCC1` (stereo not drawn) [BRL-52537], the “maximal DMR response after SB202190 pretreatment vs untreated” value [2] is listed as “significantly reduced”, the “ligand-induced DMR in cholera toxin (CTx)-pretreated cells vs untreated” value [3] is listed as “reduce” and the Ki [1] is listed as 1560 nM.

In the case of `CN(C(=O)Cc1ccc(Cl)c(Cl)c1)[C@H](CN1CCCC1)c1cccc(N=C=S)c1` [DIPPA, 2-(3,4-Dichlorophenyl)-N-methyl-N-[(1S)-1-(3-isothiocyanatophenyl)-2-(1-pyrrolidinyl)ethyl]acetamide], the “late DMR response after U0126 pretreatment vs untreated” value [2] is reported as “significantly suppressed”, the “maximal DMR response after SB202190 pretreatment vs untreated” value [2] is reported as “significantly reduced” and the “maximal DMR response after U0126 pretreatment vs untreated” value [2] is reported as “sensitive”. For the same compound, the IC50 [1] was 1800 nM.
